Reference: ChEMBL document CHEMBL4825698, “Identification of novel benzothiopyranones with ester and amide motifs derived from active metabolite as promising leads against Mycobacterium tuberculosis” (Eur J Med Chem, 2021)
Converted amounts (≈) assume the structure as drawn.

Legend:
[1] = tested on: Mycobacterium tuberculosis; assay: Antimycobacterial activity against Mycobacterium tuberculosis H37Rv assessed as bacterial growth inhibition incubated for 7 days by MABA assay; type: functional; details: 168 h, time 7 day
[2] = Metabolic stability in pooled human hepatocytes assessed as half life; type: ADME, cell-based, Hepatocyte
[3] = Metabolic Stability in pooled human hepatocytes assessed as parent compound remaining after 30 mins; type: ADME, cell-based, Hepatocyte; details: read-out: Stabilty
[4] = Metabolic stability in pooled mouse hepatocytes assessed as parent compound remaining after 30 mins; type: ADME, cell-based, Hepatocyte; details: read-out: Stabilty
Vero = assay: Cytotoxicity against African green monkey Vero cells assessed as reduction in cell viability after 48 hrs by MTT assay; type: cell-based; details: Chlorocebus sabaeus
[5] = Metabolic stability in pooled mouse hepatocytes assessed as half life; type: ADME, cell-based, Hepatocyte

SMILES: O=C(OC1CCC(CN2CCN(c3cc(=O)c4cc(C(F)(F)F)cc([N+](=O)[O-])c4s3)CC2)CC1)c1ccccc1 (configuration not stated)
- MIC [1]: < 0.016 µg/mL
- half-life [2]: 36.2 min
- remaining at 0.5 h [3]: 56.4%
- remaining at 0.5 h [4]: 68.1%
- IC50 (Vero): > 64 µg/mL
- half-life [5]: 54.2 min

SMILES: O=C(OC1CCC(CN2CCN(c3cc(=O)c4cc(C(F)(F)F)cc([N+](=O)[O-])c4s3)CC2)CC1)c1ccc(C(F)(F)F)cc1 (configuration not stated)
- MIC [1]: < 0.016 µg/mL
- half-life [2]: 7 min
- remaining at 0.5 h [3]: 5.2%
- remaining at 0.5 h [4]: 28.8%
- IC50 (Vero): > 64 µg/mL
- half-life [5]: 16.7 min

SMILES: O=c1cc(N2CCN(CC3CCC(NS(=O)(=O)c4ccccc4)CC3)CC2)sc2c([N+](=O)[O-])cc(C(F)(F)F)cc12 (configuration not stated)
- MIC [1]: 0.107 µg/mL (≈ 0.175 µM)
- half-life [2]: > 93.2 min
- remaining at 0.5 h [3]: 90.8%
- remaining at 0.5 h [4]: 95.3%
- IC50 (Vero): > 64 µg/mL
- half-life [5]: > 93.2 min

SMILES: COc1ccc(C(=O)OC2CCC(CN3CCN(c4cc(=O)c5cc(C(F)(F)F)cc([N+](=O)[O-])c5s4)CC3)CC2)cc1 (configuration not stated)
- MIC [1]: 0.121 µg/mL (≈ 0.2 µM)
- half-life [2]: 9.9 min
- remaining at 0.5 h [3]: 12.2%
- remaining at 0.5 h [4]: 31%
- IC50 (Vero): > 64 µg/mL
- half-life [5]: 17.7 min

SMILES: O=C(OC1CCC(CN2CCN(c3cc(=O)c4cc(C(F)(F)F)cc([N+](=O)[O-])c4s3)CC2)CC1)C1CCCCC1 (configuration not stated)
- MIC [1]: < 0.016 µg/mL
- half-life [2]: 5.8 min
- remaining at 0.5 h [3]: 2.8%
- remaining at 0.5 h [4]: 1.2%
- IC50 (Vero): > 64 µg/mL
- half-life [5]: 4.7 min

SMILES: O=C(NC1CCC(CN2CCN(c3cc(=O)c4cc(C(F)(F)F)cc([N+](=O)[O-])c4s3)CC2)CC1)c1ccccc1 (configuration not stated)
- MIC [1]: 0.244 µg/mL (≈ 0.425 µM)
- half-life [2]: > 93.2 min
- remaining at 0.5 h [3]: 92.9%
- remaining at 0.5 h [4]: 90.6%
- IC50 (Vero): 44.3 µg/mL (≈ 77.1 µM)
- half-life [5]: > 93.2 min

SMILES: CC(=O)NC1CCC(CN2CCN(c3cc(=O)c4cc(C(F)(F)F)cc([N+](=O)[O-])c4s3)CC2)CC1 (configuration not stated)
- MIC [1]: 4.71 µg/mL (≈ 9.19 µM)
- half-life [2]: > 93.2 min
- remaining at 0.5 h [3]: 86.8%
- remaining at 0.5 h [4]: 94.9%
- IC50 (Vero): > 64 µg/mL
- half-life [5]: > 93.2 min

SMILES: O=C(OC1CCC(CN2CCN(c3cc(=O)c4cc(C(F)(F)F)cc([N+](=O)[O-])c4s3)CC2)CC1)c1ccncc1 (configuration not stated)
- MIC [1]: < 0.016 µg/mL
- half-life [2]: 4.5 min
- remaining at 0.5 h [3]: 1%
- remaining at 0.5 h [4]: 1.4%
- IC50 (Vero): > 64 µg/mL
- half-life [5]: 4.9 min

SMILES: CS(=O)(=O)OC1CCC(CN2CCN(c3cc(=O)c4cc(C(F)(F)F)cc([N+](=O)[O-])c4s3)CC2)CC1 (configuration not stated)
- MIC [1]: < 0.016 µg/mL
- IC50 (Vero): > 64 µg/mL

SMILES: Cc1cccc(C(=O)OC2CCC(CN3CCN(c4cc(=O)c5cc(C(F)(F)F)cc([N+](=O)[O-])c5s4)CC3)CC2)c1 (configuration not stated)
- MIC [1]: < 0.016 µg/mL
- IC50 (Vero): > 64 µg/mL

SMILES: C=CC(=O)OC1CCC(CN2CCN(c3cc(=O)c4cc(C(F)(F)F)cc([N+](=O)[O-])c4s3)CC2)CC1 (configuration not stated)
- MIC [1]: 0.035 µg/mL (≈ 0.0666 µM)
- IC50 (Vero): > 64 µg/mL

SMILES: CC(=O)OC1CCC(CN2CCN(c3cc(=O)c4cc(C(F)(F)F)cc([N+](=O)[O-])c4s3)CC2)CC1 (configuration not stated)
- MIC [1]: < 0.016 µg/mL
- half-life [2]: < 9 min
- remaining at 0.5 h [3]: 0%
- remaining at 0.5 h [4]: 0%
- IC50 (Vero): > 64 µg/mL
- half-life [5]: < 9 min

SMILES: O=C(OC1CCC(CN2CCN(c3cc(=O)c4cc(C(F)(F)F)cc([N+](=O)[O-])c4s3)CC2)CC1)c1cccc(F)c1 (configuration not stated)
- MIC [1]: < 0.016 µg/mL
- IC50 (Vero): > 64 µg/mL

SMILES: O=C(OC1CCC(CN2CCN(c3cc(=O)c4cc(C(F)(F)F)cc([N+](=O)[O-])c4s3)CC2)CC1)c1ccc2c(c1)OCC2 (configuration not stated)
- MIC [1]: 0.179 µg/mL (≈ 0.29 µM)
- IC50 (Vero): > 64 µg/mL

SMILES: O=c1cc(N2CCN(CC3CCC(OS(=O)(=O)c4ccccc4)CC3)CC2)sc2c([N+](=O)[O-])cc(C(F)(F)F)cc12 (configuration not stated)
- MIC [1]: < 0.016 µg/mL
- IC50 (Vero): > 64 µg/mL

SMILES: CCCC(=O)OC1CCC(CN2CCN(c3cc(=O)c4cc(C(F)(F)F)cc([N+](=O)[O-])c4s3)CC2)CC1 (configuration not stated)
- MIC [1]: < 0.016 µg/mL
- IC50 (Vero): > 64 µg/mL

SMILES: CC(C)S(=O)(=O)OC1CCC(CN2CCN(c3cc(=O)c4cc(C(F)(F)F)cc([N+](=O)[O-])c4s3)CC2)CC1 (configuration not stated)
- MIC [1]: < 0.016 µg/mL
- IC50 (Vero): > 64 µg/mL

SMILES: O=C(OC1CCC(CN2CCN(c3cc(=O)c4cc(C(F)(F)F)cc([N+](=O)[O-])c4s3)CC2)CC1)c1ccc2ccccc2c1 (configuration not stated)
- MIC [1]: 0.03 µg/mL (≈ 0.0479 µM)
- IC50 (Vero): > 64 µg/mL

SMILES: O=C(OC1CCC(CN2CCN(c3cc(=O)c4cc(C(F)(F)F)cc([N+](=O)[O-])c4s3)CC2)CC1)c1ccc(F)cc1 (configuration not stated)
- MIC [1]: < 0.016 µg/mL
- half-life [2]: 5.9 min
- remaining at 0.5 h [3]: 3%
- remaining at 0.5 h [4]: 1.5%
- IC50 (Vero): > 64 µg/mL
- half-life [5]: 4.9 min

SMILES: Cc1ccc(C(=O)OC2CCC(CN3CCN(c4cc(=O)c5cc(C(F)(F)F)cc([N+](=O)[O-])c5s4)CC3)CC2)cc1 (configuration not stated)
- MIC [1]: 0.031 µg/mL (≈ 0.0526 µM)
- half-life [2]: 8.9 min
- remaining at 0.5 h [3]: 9.7%
- remaining at 0.5 h [4]: 18%
- IC50 (Vero): > 64 µg/mL
- half-life [5]: 12.1 min

SMILES: O=c1cc(N2CCN(CC3CCC(OS(=O)(=O)c4ccc5ccccc5c4)CC3)CC2)sc2c([N+](=O)[O-])cc(C(F)(F)F)cc12 (configuration not stated)
- MIC [1]: < 0.016 µg/mL
- IC50 (Vero): > 64 µg/mL

SMILES: CS(=O)(=O)NC1CCC(CN2CCN(c3cc(=O)c4cc(C(F)(F)F)cc([N+](=O)[O-])c4s3)CC2)CC1 (configuration not stated)
- MIC [1]: > 32 µg/mL
- half-life [2]: > 93.2 min
- remaining at 0.5 h [3]: 105%
- remaining at 0.5 h [4]: 111%
- IC50 (Vero): 48.4 µg/mL (≈ 88.3 µM)
- half-life [5]: > 93.2 min

SMILES: COc1ccccc1C(=O)OC1CCC(CN2CCN(c3cc(=O)c4cc(C(F)(F)F)cc([N+](=O)[O-])c4s3)CC2)CC1 (configuration not stated)
- MIC [1]: 0.031 µg/mL (≈ 0.0512 µM)
- IC50 (Vero): > 64 µg/mL

SMILES: O=c1cc(N2CCN(CC3CCC(NP(=O)(Oc4ccccc4)Oc4ccccc4)CC3)CC2)sc2c([N+](=O)[O-])cc(C(F)(F)F)cc12 (configuration not stated)
- MIC [1]: 0.076 µg/mL (≈ 0.108 µM)
- half-life [2]: 69.2 min
- remaining at 0.5 h [3]: 74.1%
- remaining at 0.5 h [4]: 66.1%
- IC50 (Vero): > 64 µg/mL
- half-life [5]: 50.2 min

SMILES: CC(C)C(=O)OC1CCC(CN2CCN(c3cc(=O)c4cc(C(F)(F)F)cc([N+](=O)[O-])c4s3)CC2)CC1 (configuration not stated)
- MIC [1]: < 0.016 µg/mL
- IC50 (Vero): > 64 µg/mL

SMILES: Nc1cc(C(F)(F)F)cc2c(=O)cc(N3CCN(CC4CCCCC4)CC3)sc12
- MIC [1]: 12.7 µg/mL (≈ 29.8 µM)
- remaining at 0.5 h [3]: 0.9%
- remaining at 0.5 h [4]: 69.4%

SMILES: O=C(OC1CCC(CN2CCN(c3cc(=O)c4cc(C(F)(F)F)cc([N+](=O)[O-])c4s3)CC2)CC1)c1cccc(C(F)(F)F)c1 (configuration not stated)
- MIC [1]: < 0.016 µg/mL
- IC50 (Vero): > 64 µg/mL

SMILES: O=c1cc(N2CCN(CC3CCC(OS(=O)(=O)c4cccnc4)CC3)CC2)sc2c([N+](=O)[O-])cc(C(F)(F)F)cc12 (configuration not stated)
- MIC [1]: < 0.016 µg/mL
- IC50 (Vero): > 64 µg/mL

SMILES: O=c1cc(N2CCN(CC3CCC(OS(=O)(=O)c4ccc5c(c4)CCO5)CC3)CC2)sc2c([N+](=O)[O-])cc(C(F)(F)F)cc12 (configuration not stated)
- MIC [1]: < 0.016 µg/mL
- IC50 (Vero): > 64 µg/mL

SMILES: O=C(OC1CCC(CN2CCN(c3cc(=O)c4cc(C(F)(F)F)cc([N+](=O)[O-])c4s3)CC2)CC1)c1cccs1 (configuration not stated)
- MIC [1]: < 0.016 µg/mL
- half-life [2]: 5.5 min
- remaining at 0.5 h [3]: 2.2%
- remaining at 0.5 h [4]: 1.8%
- IC50 (Vero): > 64 µg/mL
- half-life [5]: 5.2 min

SMILES: COc1cccc(C(=O)OC2CCC(CN3CCN(c4cc(=O)c5cc(C(F)(F)F)cc([N+](=O)[O-])c5s4)CC3)CC2)c1 (configuration not stated)
- MIC [1]: < 0.016 µg/mL
- IC50 (Vero): > 64 µg/mL

SMILES: Nc1cc(C(F)(F)F)cc2c(=O)cc(N3CCN(CC4CCC(O)CC4)CC3)sc12 (configuration not stated)
- MIC [1]: > 32 µg/mL
- remaining at 0.5 h [3]: 72.9%
- remaining at 0.5 h [4]: 60%

SMILES: O=C(OC1CCC(CN2CCN(c3cc(=O)c4cc(C(F)(F)F)cc([N+](=O)[O-])c4s3)CC2)CC1)c1ccco1 (configuration not stated)
- MIC [1]: < 0.016 µg/mL
- half-life [2]: 4.5 min
- remaining at 0.5 h [3]: 1%
- remaining at 0.5 h [4]: 0.6%
- IC50 (Vero): > 64 µg/mL
- half-life [5]: < 4.5 min

SMILES: O=c1cc(N2CCN(CC3CCCCC3)CC2)sc2c(NO)cc(C(F)(F)F)cc12
- MIC [1]: 0.244 µg/mL (≈ 0.553 µM)
- remaining at 0.5 h [3]: 19.1%
- remaining at 0.5 h [4]: 47.8%

SMILES: COP(=O)(NC1CCC(CN2CCN(c3cc(=O)c4cc(C(F)(F)F)cc([N+](=O)[O-])c4s3)CC2)CC1)OC (configuration not stated)
- MIC [1]: 3.15 µg/mL (≈ 5.45 µM)
- IC50 (Vero): > 64 µg/mL

SMILES: O=C(OC1CCC(CN2CCN(c3cc(=O)c4cc(C(F)(F)F)cc([N+](=O)[O-])c4s3)CC2)CC1)C1CCC1 (configuration not stated)
- MIC [1]: 0.028 µg/mL (≈ 0.0506 µM)
- IC50 (Vero): > 64 µg/mL

SMILES: CO[C@H]1/C=C/O[C@@]2(C)Oc3c(C)c(O)c4c(O)c(c(/C=N/N5CCN(C)CC5)c(O)c4c3C2=O)NC(=O)/C(C)=C\C=C\[C@H](C)[C@H](O)[C@@H](C)[C@@H](O)[C@@H](C)[C@H](OC(C)=O)[C@@H]1C [RIFAMPIN]
- MIC [1]: 0.025 µg/mL (≈ 0.0304 µM)
- IC50 (Vero): > 64 µg/mL
